From ChEMBL document CHEMBL5724914, “Linking interpersonal differences in gut microbiota composition and drug biotransformation activity” (2024)

Legend:
[1] = (§1) The drug is tested on WLS-052 corresponding to human gut metagenome with ENA study accession number: PRJEB37062 and ENA sample accession number: ERS12561747 for biotransformation under anaerobic condition. The drug concentrations were measured over 9 timepoints collected between 0 and 24 hours of incubation by liquid-chromatography-coupled mass spectrometry (LC–MS); details: 2 µM
[2] = human gut metagenome, 24 h, 2 µM
[3] = as §1, with “Z-024” for “WLS-052”, “pig” for “human”, “ERS12561823” for “ERS12561747”; details: 2 µM
[4] = as §1, with “Z-011” for “WLS-052”, “mouse” for “human”, “ERS12561811” for “ERS12561747”; details: 2 µM
[5] = as §1, with “Z-005” for “WLS-052”, “to” for “to human gut”, “ERS12561805” for “ERS12561747”; details: 2 µM
[6] = as §1, with “WLS-310” for “WLS-052”, “ERS12561785” for “ERS12561747”; details: 2 µM
[7] = human gut metagenome, 24 h, 2 µM; remark: listed apart in the source
[8] = human gut metagenome, 24 h, 2 µM; remark: listed apart in the source
[9] = human gut metagenome, 24 h, 2 µM; remark: listed apart in the source
[10] = as §1, with “Z-026” for “WLS-052”, “to” for “to human gut”, “ERS12561825” for “ERS12561747”; details: 2 µM
[11] = as §1, with “WLS-027” for “WLS-052”, “ERS12561744” for “ERS12561747”; details: 2 µM
[12] = as §1, with “WLS-039” for “WLS-052”, “ERS12561746” for “ERS12561747”; details: 2 µM
[13] = as §1, with “Z-020” for “WLS-052”, “rabbit” for “human”, “ERS12561819” for “ERS12561747”; details: 2 µM
[14] = as §1, with “WLS-069” for “WLS-052”, “ERS12561748” for “ERS12561747”; details: 2 µM
[15] = as §1, with “WLS-082” for “WLS-052”, “ERS12561751” for “ERS12561747”; details: 2 µM
[16] = as §1, with “WLS-090” for “WLS-052”, “ERS12561753” for “ERS12561747”; details: 2 µM
[17] = human gut metagenome, 24 h, 2 µM; remark: listed apart in the source
[18] = human gut metagenome, 24 h, 2 µM; remark: listed apart in the source
[19] = as §1, with “WLS-220” for “WLS-052”, “ERS12561769” for “ERS12561747”; details: 2 µM
[20] = as §1, with “Z-010” for “WLS-052”, “to” for “to human gut”, “ERS12561810” for “ERS12561747”; details: 2 µM
Note: call rule not given here.

Row | Compound | Bacterial Biotransformation [1] | Bacterial Biotransformation [2] | Bacterial Biotransformation [3] | Bacterial Biotransformation [4] | Bacterial Biotransformation [5] | Bacterial Biotransformation [6] | Bacterial Biotransformation [7] | Bacterial Biotransformation [8] | Bacterial Biotransformation [9] | Bacterial Biotransformation [10] | Bacterial Biotransformation [11] | Bacterial Biotransformation [12] | Bacterial Biotransformation [13] | Bacterial Biotransformation [14] | Bacterial Biotransformation [15] | Bacterial Biotransformation [16] | Bacterial Biotransformation [17] | Bacterial Biotransformation [18] | Bacterial Biotransformation [19] | Bacterial Biotransformation [20]
1 | Br.CN(C)CCCC1(c2ccc(F)cc2)OCc2cc(C#N)ccc21 (stereo not given) [CITALOPRAM HYDROBROMIDE] | Compound NOT metabolized | Compound metabolized | Compound NOT metabolized | Compound metabolized | Compound NOT metabolized | Compound metabolized | Compound metabolized | Compound NOT metabolized | Compound metabolized | Compound NOT metabolized | Compound NOT metabolized | Compound NOT metabolized | Compound NOT metabolized | Compound metabolized | Compound NOT metabolized | Compound metabolized | Compound NOT metabolized | Compound NOT metabolized | Compound NOT metabolized | Compound metabolized
2 | NC(=O)N1c2ccccc2CC(=O)c2ccccc21 [OXCARBAZEPINE] | Compound NOT metabolized | Compound NOT metabolized | Compound metabolized | Compound NOT metabolized | Compound metabolized | Compound NOT metabolized | Compound NOT metabolized | Compound NOT metabolized | Compound NOT metabolized | Compound NOT metabolized | Compound NOT metabolized | Compound NOT metabolized | Compound NOT metabolized | Compound NOT metabolized | Compound NOT metabolized | Compound NOT metabolized | Compound NOT metabolized | Compound NOT metabolized | Compound NOT metabolized | Compound metabolized
3 | C=CCN1CC[C@]23c4c5ccc(O)c4O[C@H]2C(=O)CC[C@@]3(O)[C@H]1C5 [NALOXONE] | Compound NOT metabolized | Compound NOT metabolized | Compound NOT metabolized | Compound NOT metabolized | Compound NOT metabolized | Compound NOT metabolized | Compound NOT metabolized | Compound NOT metabolized | Compound NOT metabolized | Compound NOT metabolized | Compound NOT metabolized | Compound NOT metabolized | Compound NOT metabolized | Compound NOT metabolized | Compound NOT metabolized | Compound NOT metabolized | Compound NOT metabolized | Compound NOT metabolized | Compound NOT metabolized | Compound NOT metabolized
4 | CC(C)(Oc1ccc(CCNC(=O)c2ccc(Cl)cc2)cc1)C(=O)O [BEZAFIBRATE] | Compound metabolized | Compound metabolized | Compound metabolized | Compound NOT metabolized | Compound NOT metabolized | Compound metabolized | Compound metabolized | Compound metabolized | Compound metabolized | Compound NOT metabolized | Compound metabolized | Compound metabolized | Compound NOT metabolized | Compound metabolized | Compound metabolized | Compound metabolized | Compound NOT metabolized | Compound NOT metabolized | Compound metabolized | Compound metabolized
5 | Cc1nc(-c2ccc(OCC(C)C)c(C#N)c2)sc1C(=O)O [FEBUXOSTAT] | Compound metabolized | Compound metabolized | Compound metabolized | Compound NOT metabolized | Compound metabolized | Compound metabolized | Compound metabolized | Compound metabolized | Compound metabolized | Compound NOT metabolized | Compound metabolized | Compound metabolized | Compound metabolized | Compound metabolized | Compound metabolized | Compound metabolized | Compound NOT metabolized | Compound metabolized | Compound metabolized | Compound metabolized
6 | CC(Oc1c(Cl)cccc1Cl)C1=NCCN1 (stereo not given) [LOFEXIDINE] | Compound NOT metabolized | Compound NOT metabolized | Compound NOT metabolized | Compound NOT metabolized | Compound NOT metabolized | Compound metabolized | Compound metabolized | Compound NOT metabolized | Compound metabolized | Compound NOT metabolized | Compound metabolized | Compound NOT metabolized | Compound NOT metabolized | Compound NOT metabolized | Compound NOT metabolized | Compound metabolized | Compound NOT metabolized | Compound NOT metabolized | Compound NOT metabolized | Compound NOT metabolized
7 | COC(=O)Nc1nc2ccc(C(=O)c3ccccc3)cc2[nH]1 [MEBENDAZOLE] | Compound metabolized | Compound metabolized | Compound metabolized | Compound metabolized | Compound metabolized | Compound metabolized | Compound metabolized | Compound metabolized | Compound metabolized | Compound NOT metabolized | Compound metabolized | Compound metabolized | Compound metabolized | Compound metabolized | Compound metabolized | Compound metabolized | Compound NOT metabolized | Compound metabolized | Compound metabolized | Compound metabolized
